Test system: KRAS-mutant PDC complex spheroid viability
Assay: Anticancer human tumor 186277-243-T-J2-PDC patient-derived colon adenocarcinoma cell line growth inhibition [KRAS2]
Settings: for IC50: curve of first compound; for viability, T/C: stronger effect = lower value
Method in brief: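 KRAS-mutant tumor cells were grown as spheroids with HUVEC endothelial cells and human MSCs as stroma. Targeted agents were tested alone and with KRAS pathway inhibitors. Doses started at or near clinical Cmax, or 10 microM, descending half-log.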

[1] = second compound 0.1 µM, first compound 0.0316 µM
[2] = second compound 0.1 µM, first compound 0.1 µM
[3] = second compound 0.1 µM, first compound 0.316 µM
[4] = second compound 0.1 µM, first compound 1 µM
[5] = second compound 0.1 µM, first compound 3.16 µM
[6] = second compound 0.1 µM, first compound 10 µM
[7] = second compound 0.316 µM, first compound 0.0316 µM
[8] = second compound 0.316 µM, first compound 0.1 µM
[9] = second compound 0.316 µM, first compound 0.316 µM
[10] = second compound 0.316 µM, first compound 1 µM
[11] = second compound 0.316 µM, first compound 3.16 µM
[12] = second compound 0.316 µM, first compound 10 µM
[13] = second compound 1 µM, first compound 0.0316 µM
[14] = second compound 1 µM, first compound 0.1 µM
[15] = second compound 1 µM, first compound 0.316 µM
[16] = second compound 1 µM, first compound 1 µM
[17] = second compound 1 µM, first compound 3.16 µM
[18] = second compound 1 µM, first compound 10 µM
[19] = second compound 3.16 µM, first compound 0.0316 µM
[20] = second compound 3.16 µM, first compound 0.1 µM
[21] = second compound 3.16 µM, first compound 0.316 µM
[22] = second compound 3.16 µM, first compound 1 µM
[23] = second compound 3.16 µM, first compound 3.16 µM
[24] = second compound 3.16 µM, first compound 10 µM
[25] = second compound 10 µM, first compound 0.0316 µM
[26] = second compound 10 µM, first compound 0.1 µM
[27] = second compound 10 µM, first compound 0.316 µM
[28] = second compound 10 µM, first compound 1 µM
[29] = second compound 10 µM, first compound 3.16 µM
[30] = second compound 10 µM, first compound 10 µM
[31] = second compound 0.1 µM, first compound 0.01 µM
[32] = second compound 0.316 µM, first compound 0.01 µM
[33] = second compound 3.16 µM, first compound 0.01 µM
[34] = second compound 10 µM, first compound 0.01 µM
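Throughout, for viability, T/C: viability read after seven days of compound exposure; 100% = DMSO vehicle-treated spheroids so lower means less viable.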

SMILES	IC50 (second compound 0.1 µM) [nM]	IC50 (second compound 0.316 µM) [nM]	IC50 (second compound 1 µM) [nM]	IC50 (second compound 3.16 µM) [nM]	IC50 (second compound 10 µM) [nM]	viability, T/C [1] [%]	viability, T/C [2] [%]	viability, T/C [3] [%]	viability, T/C [4] [%]	viability, T/C [7] [%]	viability, T/C [8] [%]	viability, T/C [9] [%]	viability, T/C [10] [%]	viability, T/C [13] [%]	viability, T/C [14] [%]	viability, T/C [15] [%]	viability, T/C [16] [%]	viability, T/C [19] [%]	viability, T/C [20] [%]	viability, T/C [21] [%]	other results
CC(C)NCC(C(=O)N1CCN(c2ncnc3c2C(C)CC3O)CC1)c1ccc(Cl)cc1 (stereo not drawn) + C=CC(=O)N1CCN(c2nc(=O)n(-c3c(C)ccnc3C(C)C)c3nc(-c4c(O)cccc4F)c(F)cc23)C(C)C1	615	650	636	271	51.3	102	99.5	63.7	37.5	106	93.6	63.2	41.1	109	103	66.5	36.7	100	85.1	40.9	viability, T/C [5]: 27.9%; viability, T/C [6]: 13.4%; viability, T/C [11]: 23.9%; viability, T/C [12]: 11.8%; viability, T/C [17]: 26.3%; viability, T/C [18]: 10.6%; viability, T/C [22]: 25.7%; viability, T/C [23]: 14.3%; viability, T/C [24]: 8.27%; viability, T/C [25]: 70.3%; viability, T/C [26]: 20.1%; viability, T/C [27]: 15.9%; viability, T/C [28]: 8.02%; viability, T/C [29]: 6.56%; viability, T/C [30]: 2.87%
CC1COCCN1c1cc(-c2ccnn2C)c2ccnc(-c3ccn[nH]3)c2n1 (stereo not drawn) + C=CC(=O)N1CCN(c2nc(=O)n(-c3c(C)ccnc3C(C)C)c3nc(-c4c(O)cccc4F)c(F)cc23)C(C)C1	22	22.6	17.9	17	< 10	32.6	5.89	4.33	3.67	31.5	6.35	4.65	3.68	24.2	7.17	5.13	4.4	15.3	7.75	5.93	viability, T/C [31]: 87.5%; viability, T/C [5]: 4.31%; viability, T/C [32]: 94.6%; viability, T/C [11]: 4.54%; viability, T/C [17]: 5.82%; viability, T/C [33]: 79.5%; viability, T/C [22]: 6.25%; viability, T/C [23]: 8.7%; viability, T/C [34]: 19.3%; viability, T/C [25]: 11.3%; viability, T/C [26]: 9.23%; viability, T/C [27]: 8.93%; viability, T/C [28]: 11.2%; viability, T/C [29]: 14.7%
CCN1CCN(Cc2ccc(Nc3ncc(F)c(-c4cc(F)c5nc(C)n(C(C)C)c5c4)n3)nc2)CC1 + C=CC(=O)N1CCN(c2nc(=O)n(-c3c(C)ccnc3C(C)C)c3nc(-c4c(O)cccc4F)c(F)cc23)C(C)C1	> 1000	> 1000	> 1000	> 1000	571	98.4	129	158	96.6	103	117	157	105	99.7	113	153	99.7	108	139	175	viability, T/C (second compound 0.1 µM, first compound 0.00316 µM): 107%; viability, T/C [31]: 95%; viability, T/C (second compound 0.316 µM, first compound 0.00316 µM): 104%; viability, T/C [32]: 101%; viability, T/C (second compound 1 µM, first compound 0.00316 µM): 109%; viability, T/C (second compound 1 µM, first compound 0.01 µM): 103%; viability, T/C (second compound 3.16 µM, first compound 0.00316 µM): 92.2%; viability, T/C [33]: 102%; viability, T/C [22]: 73%; viability, T/C (second compound 10 µM, first compound 0.00316 µM): 69.1%; viability, T/C [34]: 64.8%; viability, T/C [25]: 83.3%; viability, T/C [27]: 74.1%; viability, T/C [28]: 27.5%
CCNC(=O)CC1N=C(c2ccc(Cl)cc2)c2cc(OC)ccc2-n2c(C)nnc21 (stereo not drawn) + C=CC(=O)N1CCN(c2nc(=O)n(-c3c(C)ccnc3C(C)C)c3nc(-c4c(O)cccc4F)c(F)cc23)C(C)C1	> 10000	> 10000	9860	2730	306	108	117	121	162	103	101	125	155	95.2	103	126	138	88.9	87.1	107	viability, T/C [5]: 132%; viability, T/C [6]: 101%; viability, T/C [11]: 121%; viability, T/C [12]: 87.9%; viability, T/C [17]: 102%; viability, T/C [18]: 49.4%; viability, T/C [22]: 101%; viability, T/C [23]: 43.3%; viability, T/C [24]: 14.7%; viability, T/C [25]: 75.8%; viability, T/C [26]: 87.1%; viability, T/C [27]: 46.7%; viability, T/C [28]: 18.4%; viability, T/C [29]: 9.07%; viability, T/C [30]: 4.83%
